In ChEMBL document CHEMBL3860026, “Depsidones from Lichens as Natural Product Inhibitors of M-Phase Phosphoprotein 1, a Human Kinesin Required for Cytokinesis” (J Nat Prod, 2016):
Values after ≈ are worked out from the molar mass of the structure shown. Active and inactive are the calls of the source. The rule behind the calls is not given here.

Legend:
[1] = target: T1, Kinesin-like protein KIF20B (Homo sapiens, UniProt Q96Q89); assay: Inhibition of basal ATPase activity of N-terminal His6-tagged/SUMO-fused human MPP1 motor domain (57 to 491 residues) expressed in Escherichia coli BL21 CodonPlus by pyruvate kinase/lactate dehydrogenase-linked assay
T1 sequence (Q96Q89 whole entry, the tested form may be a part): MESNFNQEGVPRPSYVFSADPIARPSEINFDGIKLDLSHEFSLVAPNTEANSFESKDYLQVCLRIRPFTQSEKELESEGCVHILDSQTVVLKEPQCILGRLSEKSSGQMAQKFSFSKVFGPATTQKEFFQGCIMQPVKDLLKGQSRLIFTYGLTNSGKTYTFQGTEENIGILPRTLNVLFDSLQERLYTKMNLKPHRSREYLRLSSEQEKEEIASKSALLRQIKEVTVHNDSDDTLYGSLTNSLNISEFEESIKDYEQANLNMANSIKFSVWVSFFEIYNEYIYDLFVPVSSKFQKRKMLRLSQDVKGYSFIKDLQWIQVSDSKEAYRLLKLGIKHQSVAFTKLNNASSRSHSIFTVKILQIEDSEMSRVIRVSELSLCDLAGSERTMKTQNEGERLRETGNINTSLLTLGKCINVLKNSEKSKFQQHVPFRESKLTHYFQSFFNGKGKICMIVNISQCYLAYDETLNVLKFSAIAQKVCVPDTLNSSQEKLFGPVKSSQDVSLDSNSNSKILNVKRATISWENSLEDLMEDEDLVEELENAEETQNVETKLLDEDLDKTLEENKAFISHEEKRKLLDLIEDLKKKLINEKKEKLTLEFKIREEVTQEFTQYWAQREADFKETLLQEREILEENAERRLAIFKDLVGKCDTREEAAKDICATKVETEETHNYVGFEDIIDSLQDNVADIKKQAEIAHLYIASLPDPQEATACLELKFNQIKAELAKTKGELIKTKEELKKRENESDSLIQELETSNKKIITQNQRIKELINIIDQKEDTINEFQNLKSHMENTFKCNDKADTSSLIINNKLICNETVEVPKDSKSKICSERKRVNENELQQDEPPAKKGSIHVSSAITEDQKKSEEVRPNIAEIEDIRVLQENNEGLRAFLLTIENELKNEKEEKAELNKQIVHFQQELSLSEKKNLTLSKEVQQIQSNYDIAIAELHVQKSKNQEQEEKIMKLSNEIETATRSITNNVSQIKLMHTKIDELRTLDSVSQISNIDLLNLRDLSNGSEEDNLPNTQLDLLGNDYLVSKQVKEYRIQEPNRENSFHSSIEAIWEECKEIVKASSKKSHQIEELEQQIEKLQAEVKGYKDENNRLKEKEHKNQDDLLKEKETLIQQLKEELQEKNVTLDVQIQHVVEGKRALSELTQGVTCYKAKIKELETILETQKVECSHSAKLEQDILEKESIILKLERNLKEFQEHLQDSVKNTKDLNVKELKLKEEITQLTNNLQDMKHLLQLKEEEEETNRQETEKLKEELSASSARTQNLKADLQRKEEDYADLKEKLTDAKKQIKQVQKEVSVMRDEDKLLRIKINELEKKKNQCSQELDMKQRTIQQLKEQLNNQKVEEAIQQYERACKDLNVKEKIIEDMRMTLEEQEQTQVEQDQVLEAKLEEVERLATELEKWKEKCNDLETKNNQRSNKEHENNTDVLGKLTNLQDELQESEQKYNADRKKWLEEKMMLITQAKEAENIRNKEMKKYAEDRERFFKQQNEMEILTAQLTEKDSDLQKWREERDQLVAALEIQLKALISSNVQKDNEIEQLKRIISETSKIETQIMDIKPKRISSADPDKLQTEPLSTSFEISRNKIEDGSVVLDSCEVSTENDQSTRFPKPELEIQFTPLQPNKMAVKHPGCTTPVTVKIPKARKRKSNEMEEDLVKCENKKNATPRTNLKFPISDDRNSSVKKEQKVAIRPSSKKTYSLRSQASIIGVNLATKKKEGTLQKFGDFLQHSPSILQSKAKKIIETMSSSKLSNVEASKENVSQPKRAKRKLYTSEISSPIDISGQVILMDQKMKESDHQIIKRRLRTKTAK

[2] = target: T1, Kinesin-like protein KIF20B; assay: Inhibition of microtubule-stimulated ATPase activity of N-terminal His6-tagged/SUMO-fused human MPP1 motor domain (2 to 477 residues) expressed in Escherichia coli BL21 CodonPlus by pyruvate kinase/lactate dehydrogenase-linked assay
[3] = target: T2, Kinesin-like protein KIF9 (Homo sapiens) (UniProt Q9HAQ2); assay: Inhibition of microtubule-stimulated ATPase activity of human Kif9 at 200 uM by pyruvate kinase/lactate dehydrogenase-linked assay
T2 sequence (whole entry): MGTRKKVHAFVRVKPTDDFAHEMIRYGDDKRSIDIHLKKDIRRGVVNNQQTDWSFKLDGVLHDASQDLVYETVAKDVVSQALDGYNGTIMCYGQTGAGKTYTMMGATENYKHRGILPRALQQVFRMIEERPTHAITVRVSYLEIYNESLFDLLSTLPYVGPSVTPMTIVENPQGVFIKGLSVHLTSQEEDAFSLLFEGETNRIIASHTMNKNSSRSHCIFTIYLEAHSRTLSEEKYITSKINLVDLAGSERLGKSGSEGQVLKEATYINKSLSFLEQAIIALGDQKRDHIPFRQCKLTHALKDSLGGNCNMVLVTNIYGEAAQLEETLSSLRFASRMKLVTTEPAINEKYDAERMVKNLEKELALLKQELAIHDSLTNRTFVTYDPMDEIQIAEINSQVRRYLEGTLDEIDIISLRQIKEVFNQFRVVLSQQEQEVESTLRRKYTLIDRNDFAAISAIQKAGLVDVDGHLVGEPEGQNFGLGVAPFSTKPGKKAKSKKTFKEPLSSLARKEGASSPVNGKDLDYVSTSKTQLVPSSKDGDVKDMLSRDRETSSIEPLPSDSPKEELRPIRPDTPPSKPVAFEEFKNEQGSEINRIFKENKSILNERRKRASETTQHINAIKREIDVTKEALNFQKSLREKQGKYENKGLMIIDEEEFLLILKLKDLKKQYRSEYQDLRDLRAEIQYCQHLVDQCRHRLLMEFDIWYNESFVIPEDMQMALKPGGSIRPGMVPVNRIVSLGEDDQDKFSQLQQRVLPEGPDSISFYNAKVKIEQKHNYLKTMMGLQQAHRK

[4] = target: T1, Kinesin-like protein KIF20B; conditions: 1 to 20 uM
[5] = target: T3, Kinesin-like protein KIF3B (Homo sapiens) (UniProt O15066); assay: Inhibition of microtubule-stimulated ATPase activity of human Kif3B at 200 uM by pyruvate kinase/lactate dehydrogenase-linked assay
T3 sequence (whole entry): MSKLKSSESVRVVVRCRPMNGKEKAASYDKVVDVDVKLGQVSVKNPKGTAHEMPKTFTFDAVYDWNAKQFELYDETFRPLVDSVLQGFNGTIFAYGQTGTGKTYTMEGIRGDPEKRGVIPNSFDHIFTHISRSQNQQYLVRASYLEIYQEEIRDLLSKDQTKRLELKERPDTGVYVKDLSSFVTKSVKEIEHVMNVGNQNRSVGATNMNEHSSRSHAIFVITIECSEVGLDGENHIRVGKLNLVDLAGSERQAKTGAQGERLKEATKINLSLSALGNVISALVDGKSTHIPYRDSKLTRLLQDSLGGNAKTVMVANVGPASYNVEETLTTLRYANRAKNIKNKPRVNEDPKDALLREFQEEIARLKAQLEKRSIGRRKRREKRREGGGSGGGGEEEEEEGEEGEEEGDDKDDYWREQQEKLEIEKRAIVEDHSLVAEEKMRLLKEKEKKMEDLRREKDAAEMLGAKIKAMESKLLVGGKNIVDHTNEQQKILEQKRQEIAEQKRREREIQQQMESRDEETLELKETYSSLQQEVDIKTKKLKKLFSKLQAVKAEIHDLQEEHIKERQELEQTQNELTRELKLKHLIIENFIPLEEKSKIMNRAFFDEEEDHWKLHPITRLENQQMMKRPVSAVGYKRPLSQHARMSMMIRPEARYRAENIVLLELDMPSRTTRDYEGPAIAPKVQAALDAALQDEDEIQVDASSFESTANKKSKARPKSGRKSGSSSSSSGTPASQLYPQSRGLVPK

[6] = Passive permeability of the compound assessed as compound recovery at 10 uM after 5 hrs by PAMPA; assay type: ADME; conditions: read-out: Drug recovery
[7] = target: Centromere-associated protein E (Homo sapiens, UniProt Q02224); assay: Inhibition of basal ATPase activity of human CENP-E by pyruvate kinase/lactate dehydrogenase-linked assay
Centromere-associated protein E, sequence (Q02224 whole entry, the tested form may be a part): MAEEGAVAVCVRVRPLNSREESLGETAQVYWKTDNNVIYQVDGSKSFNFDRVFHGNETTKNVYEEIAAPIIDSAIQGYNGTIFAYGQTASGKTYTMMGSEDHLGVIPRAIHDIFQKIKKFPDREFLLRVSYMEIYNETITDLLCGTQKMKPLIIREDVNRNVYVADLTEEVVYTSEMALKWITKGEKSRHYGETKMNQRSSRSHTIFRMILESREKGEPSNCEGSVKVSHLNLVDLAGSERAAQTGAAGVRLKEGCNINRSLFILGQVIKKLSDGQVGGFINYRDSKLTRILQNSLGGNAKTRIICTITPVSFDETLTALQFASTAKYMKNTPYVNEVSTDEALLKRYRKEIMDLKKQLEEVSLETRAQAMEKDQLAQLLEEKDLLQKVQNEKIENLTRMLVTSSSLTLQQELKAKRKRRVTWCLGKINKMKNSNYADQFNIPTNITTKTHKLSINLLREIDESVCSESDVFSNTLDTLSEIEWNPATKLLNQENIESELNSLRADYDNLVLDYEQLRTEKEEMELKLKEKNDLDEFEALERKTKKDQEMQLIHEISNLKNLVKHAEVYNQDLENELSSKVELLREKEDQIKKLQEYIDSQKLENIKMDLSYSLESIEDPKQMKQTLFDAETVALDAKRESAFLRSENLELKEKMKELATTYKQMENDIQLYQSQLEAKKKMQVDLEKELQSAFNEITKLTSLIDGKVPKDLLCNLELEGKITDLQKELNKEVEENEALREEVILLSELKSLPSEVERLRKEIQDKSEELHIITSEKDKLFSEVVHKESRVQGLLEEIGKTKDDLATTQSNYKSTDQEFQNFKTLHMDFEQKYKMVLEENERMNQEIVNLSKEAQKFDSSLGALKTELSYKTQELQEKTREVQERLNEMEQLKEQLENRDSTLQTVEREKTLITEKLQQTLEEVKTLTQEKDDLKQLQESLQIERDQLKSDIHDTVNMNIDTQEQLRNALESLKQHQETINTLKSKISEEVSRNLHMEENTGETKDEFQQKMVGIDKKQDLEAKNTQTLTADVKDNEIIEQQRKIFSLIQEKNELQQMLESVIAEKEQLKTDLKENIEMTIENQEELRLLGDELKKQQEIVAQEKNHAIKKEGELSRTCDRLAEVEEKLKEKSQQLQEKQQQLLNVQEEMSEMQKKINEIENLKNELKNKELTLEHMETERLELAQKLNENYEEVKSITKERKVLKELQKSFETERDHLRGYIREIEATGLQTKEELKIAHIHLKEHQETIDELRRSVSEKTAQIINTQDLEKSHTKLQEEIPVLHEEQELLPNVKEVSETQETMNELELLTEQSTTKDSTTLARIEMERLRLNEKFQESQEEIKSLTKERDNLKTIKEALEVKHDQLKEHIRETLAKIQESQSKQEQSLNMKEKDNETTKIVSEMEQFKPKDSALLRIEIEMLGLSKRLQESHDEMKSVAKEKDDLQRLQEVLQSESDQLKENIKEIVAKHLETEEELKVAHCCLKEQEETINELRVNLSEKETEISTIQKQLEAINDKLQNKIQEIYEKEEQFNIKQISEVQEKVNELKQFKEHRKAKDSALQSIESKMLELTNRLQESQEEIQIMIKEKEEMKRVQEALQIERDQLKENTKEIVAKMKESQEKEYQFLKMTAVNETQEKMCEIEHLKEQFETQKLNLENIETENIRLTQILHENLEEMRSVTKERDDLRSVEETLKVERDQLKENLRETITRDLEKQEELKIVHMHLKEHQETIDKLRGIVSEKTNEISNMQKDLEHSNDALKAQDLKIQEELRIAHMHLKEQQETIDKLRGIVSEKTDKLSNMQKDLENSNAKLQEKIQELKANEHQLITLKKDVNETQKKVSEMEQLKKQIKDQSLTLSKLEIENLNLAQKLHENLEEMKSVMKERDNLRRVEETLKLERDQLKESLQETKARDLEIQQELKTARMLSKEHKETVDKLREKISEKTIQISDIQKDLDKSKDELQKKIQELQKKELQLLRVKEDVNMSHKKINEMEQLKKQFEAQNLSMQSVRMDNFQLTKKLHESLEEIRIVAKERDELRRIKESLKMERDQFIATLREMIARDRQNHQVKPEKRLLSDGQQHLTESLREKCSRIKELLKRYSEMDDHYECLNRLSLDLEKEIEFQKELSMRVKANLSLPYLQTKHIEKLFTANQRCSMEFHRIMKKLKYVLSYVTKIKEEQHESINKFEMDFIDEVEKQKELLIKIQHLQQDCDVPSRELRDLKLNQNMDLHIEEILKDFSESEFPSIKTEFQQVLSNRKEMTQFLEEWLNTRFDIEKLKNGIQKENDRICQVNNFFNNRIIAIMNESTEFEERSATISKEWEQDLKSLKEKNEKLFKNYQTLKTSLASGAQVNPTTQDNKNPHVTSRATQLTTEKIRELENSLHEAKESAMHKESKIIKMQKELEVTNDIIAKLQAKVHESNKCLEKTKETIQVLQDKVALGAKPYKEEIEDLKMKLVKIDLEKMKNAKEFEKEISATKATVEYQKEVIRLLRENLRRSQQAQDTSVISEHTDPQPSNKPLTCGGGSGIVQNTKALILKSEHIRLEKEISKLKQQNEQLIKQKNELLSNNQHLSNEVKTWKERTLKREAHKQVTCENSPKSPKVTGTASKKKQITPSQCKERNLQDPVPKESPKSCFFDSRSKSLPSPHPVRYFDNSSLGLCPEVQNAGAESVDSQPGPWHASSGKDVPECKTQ

[8] = target: T1, Kinesin-like protein KIF20B; assay: Inhibition of basal ATPase activity of N-terminal His6-tagged/SUMO-fused human MPP1 motor domain (2 to 477 residues) expressed in Escherichia coli BL21 CodonPlus by pyruvate kinase/lactate dehydrogenase-linked assay
[9] = Solubility of the compound in phosphate buffered saline at pH 2 after 2 hrs by turbidimetric method; assay type: physicochemical
[10] = Cytotoxicity against human BxPC3 cells assessed as growth inhibition after 72 hrs by Alamar Blue assay; assay type: functional, cell-based; conditions: BXPC-3, 72 h
[11] = Cytotoxicity against human J82 cells assessed as growth inhibition after 72 hrs by Alamar Blue assay; assay type: functional, cell-based; conditions: J82, 72 h
[12] = target: T1, Kinesin-like protein KIF20B; conditions: 1 to 20 uM; remark: listed apart in the source
[13] = target: T1, Kinesin-like protein KIF20B; assay: Inhibition of basal ATPase activity of N-terminal His6-tagged/SUMO-fused human MPP1 motor domain (2 to 477 residues) expressed in Escherichia coli BL21 CodonPlus in presence of 0.1% Tween-20 by pyruvate kinase/lactate dehydrogenase-linked assay
[14] = target: T1, Kinesin-like protein KIF20B; conditions: 1 to 20 uM; remark: listed apart in the source
[15] = Cytotoxicity against human UM-UC-3 cells assessed as growth inhibition after 72 hrs by Alamar Blue assay; assay type: functional, cell-based; conditions: UMUC3, 72 h
[16] = target: T1, Kinesin-like protein KIF20B; assay: Inhibition of basal ATPase activity of N-terminal His6-tagged/SUMO-fused human MPP1 motor domain (57 to 491 residues) expressed in Escherichia coli BL21 CodonPlus in presence of 0.1% Tween-20 by pyruvate kinase/lactate dehydrogenase-linked assay
[17] = n-octanol-buffer distribution co-efficient, log D of the compound at pH 7.4 by shake flask method; assay type: physicochemical

IC50 [1]: 9.9 µM
Imax [1]: 85%
IC50 [2]: 4.6 µM
Imax [2]: 95%
inhibition [3]: 50%
inhibition [4]: Active
inhibition [5]: 40%
recovery at 5 h, 10 µM [6]: 77%
IC50 [7]: 29.6 µM
IC50 [8]: 10.4 µM
Imax [8]: 90%
solubility kinetic at 2 h [9]: 3.75 µM (≈ 1.76 µg/mL)
inhibition [12]: Active
inhibition [13]: Active
inhibition [14]: Active
inhibition [16]: Active
logD [17]: 3
Compound: CCCCCC(=O)Cc1cc(O)cc2c1C(=O)Oc1cc(O)c(C(=O)O)c(CCCCC)c1O2 [PHYSODIC ACID]
EC50 [10]: 37.3 µM
EC50 [11]: 38.2 µM
EC50 [15]: 31.8 µM
